From patent US20260199350A1, “FLAVONES, QUINOLINONES, QUINAZOLINONES, AND AURONES, AND USES IN CK2-MEDIATED DISEASES” (Salk Institute for Biological Studies, priority 2022, published 2026)
“Also recorded” adds a separate entry of the source.

How the values were obtained:
CK2α1 and CK2α2 = assay: CK2 protein levels by Western in IL1-β-stimulated astrocytes; type: cell-based, human; details: after 5 hours
Experimental: Western blotting. For drug treatment assays, cells were treated with vehicle (DMSO) or 20 μM compound and stimulated with IL1B 10 ng/mL for 1 h, 6 h, or 24 h. Cells were dissociated with 1:1 Accutase:papain for 3 min at rt, pelleted for 5 min at 800 g, and washed twice with cold DPBS. […] Protein concentration was determined by BCA assay (Thermo Fisher). […] The blots were incubated with primary antibodies overnight at 4° C. in PBS containing 0.1% casein and 0.2% Tween-20. […] The membranes were washed 5× with 0.1% PBS-Tween20 (PBST) and incubated with secondary antibodies (1:20,000) for 1 h at rt in PBS with 0.1% casein, 0.2% Tween20, and 0.1% SDS. […] The blots were then washed 4× with PBST and 1× with DPBS. The blots were imaged using the Odyssey CLx imaging system and blots were analyzed on the ImageStudio software (LI-COR).

CK2α1 = CK2α1 (Homo sapiens, UniProt P68400); assay: Thermal shift assay followed by Western blotting; type: binding; parameters: endogenous in cells; details: astrocyte lysates
Chain of CK2α1 (P68400 whole entry): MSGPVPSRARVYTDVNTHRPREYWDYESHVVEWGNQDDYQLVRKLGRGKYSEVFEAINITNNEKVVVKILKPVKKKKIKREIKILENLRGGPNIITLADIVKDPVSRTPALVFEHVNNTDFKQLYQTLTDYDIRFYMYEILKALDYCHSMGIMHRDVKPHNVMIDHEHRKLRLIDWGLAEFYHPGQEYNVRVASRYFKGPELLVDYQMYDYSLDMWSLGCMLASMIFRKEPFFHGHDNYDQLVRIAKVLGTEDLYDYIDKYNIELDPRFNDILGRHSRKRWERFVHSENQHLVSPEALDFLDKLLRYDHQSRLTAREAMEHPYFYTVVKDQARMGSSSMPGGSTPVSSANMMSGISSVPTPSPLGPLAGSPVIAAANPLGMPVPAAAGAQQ
Experimental: Thermal shift assay and TPP. Experiments were performed as previously described (Franken et al., Nature Protocols 2015, 10:1567-1593; Reinhard et al., Nature Methods 2015, 12:1129-1131). 45 million H1-derived astrocytes were activated with 10 ng/mL IL1b for 6 h, dissociated with 1:1 Accutase/papain (3 min rt), and centrifuged at 1,800 rpm for 2 min at 4 C. The pellet was washed twice with 10 mL cold DPBS, lysed in 2.25 mL DPBS and 0.4% v/v NP-40 by freeze-thawing 3×, and clarified by centrifugation (20,000 g, 30 min, 4° C.). Protein concentration was determined by BCA assay (Bio-Rad), and lysates were diluted to 2 mg/mL. […] Reactions were incubated at rt for 30 min, after which each treated extract was divided into 10 aliquots of 95 μL in PCR strip tubes and stored on ice. Each group of treated samples was heated for 3 min at predesignated temperatures (3×10 temperatures), then kept for 3 min at rt before ultracentrifugation (20 min at 4° C., 100,000 g) in 200 μL polycarbonate tubes (Beckman Coulter #343775). Designated temperatures were 37, 41.1, 43.6, 46.9, 50, 53.7, 56, 59.5, 63, and 67° C. A small aliquot (5 μL) of supernatant was saved for Western blotting, and the rest was snap frozen at −80 C and submitted for LC-MS/MS.

IL-6 and TNFAIP2 = IL-6 and TNFAIP2 induction in AD patient-derived astrocytes; type: cell-based, human; details: IL1-β
phosphorylated NF-κB = assay: pNF-κB immunoblot in AD patient-derived astrocytes; type: cell-based, human; details: 5 h treatment
tau phosphorylation = assay: Tau phosphorylation in induced neurons (iNs); type: cell-based; details: FIG. 14
NF-κB = assay: NF-κB-Luciferase reporter assay in THP-1 NF-κB-Lucia cells; type: cell-based, human
Experimental: NF-κB-Luciferase reporter assay. THP-1 NF-κB-Lucia cells were plated at 10,000 cells per well with 10 ng/mL PMA. Three days later, media was removed and replaced with media containing LPS (1 μg/mL) and dilution series of compounds in flat bottom clear 96-well plates for 24 hours. A day later, 20 μL of media was transferred to a 96-well white plate and 50 μL of QuantiLuc Gold reagent (InvivoGen rep-qlcg5) was added per well; plate was mixed in the plate reader and luminescence was read using a Promega GloMax Reader.

microglial phagocytosis = assay: Microglial phagocytosis assay (pHrodo E. coli beads); type: cell-based, human; details: 20 μM, P=0.0015
Experimental: Phagocytosis assay. […] (2-3 biological replicates). Then, 0.5 μL of pHrodo E. Coli-FITC beads (Thermo Fisher, P35366) was added per well with gentle mixing and the cells were incubated for another 4 hours. pHrodo beads only fluoresce when they are internalized in cells. Cells were then collected by scraping, washed with FACS buffer (1×DPBS, 2% BSA, and 0.05 mM EDTA pH 8.0), and counter-stained with Zombie Violet to assess viability. Live cells were analyzed on the FACS Canto instrument for geometric mean fluorescence on the FITC channel. The background FITC fluorescence value (pHrodo beads only) was subtracted from each mean, and fold-change was computed across experimental groups.

[1] = test system: IL-6, IL-8, TNF-α, and MCP-1; assay: Flow cytometry assay of cytokine production in HCA; type: cell-based, human; details: 20 μM compound, 10 ng/mL IL1-β
Experimental: Flow cytometry. For each well of HCA in a 6-well plate, 2 mL of fresh media with GolgiPLUG (BD #555029, 1:1000) and GolgiSTOP (BD #554724, 1:1000) with 20 μM compound or vehicle (DMSO) and IL1b 10 ng/mL or DPBS was added. The cells were incubated for 5 h at 37° C. Cells were collected with TrypLE and plated into a 96-well V-bottom plate for staining. The plate was centrifuged for 5 min, 1300 rpm, 4° C. to pellet cells, which were subsequently resuspended in 100 μL DPBS with 1 μL Zombie Violet (Biolegend #4231 13) and 5 μL Human Trustain FC block (Biolegend #422302) per well for 15 min at room temperature in the dark. The plate was centrifuged, supernatant was aspirated, and the cells were washed with 100 μL/well DPBS. Cells were fixed with 100 μL/well of Cytofix/Cytoperm (BD) for 20 min at 4° C. The plate was centrifuged, supernatant was aspirated, and cells were resuspended in 100 μL Permwash (BD) and incubated for 15 min at 4° C. The plate was centrifuged, supernatant was aspirated, and cells were incubated with 100 μL/well of Ab mix or isotype mix in Permwash (see below) for 20 min at 4° C., followed by centrifugation and 2× PermWash washes. The cells were resuspended in 100 μL DPBS and transferred to FACS tubes containing 200 ul of PBS (total volume per tube 300 μL) for analysis on FACS Analyzers (LSRII or Fortessa).
A flow cytometry-based assay was used to assess the anti-inflammatory activity of several natural flavonoid compounds (FIG. 1A) and build corresponding structure-activity relationships. Primary human cerebellar astrocytes (HCA) were co-treated with 20 μM of each compound or vehicle (DMSO), 10 ng/mL IL1-β, and a protein transport inhibitor for 6 hours, and then processed for intracellular staining of pro-inflammatory cytokines IL-6, IL-8, TNF-α, and MCP-1. The presence of a C2-C3 double bond was the predominant determining factor for anti-inflammatory activity. […] There was no cytotoxicity associated with flavone treatment (FIG. 1E).

COc1cc(-c2cc(=O)c3c(O)cc(O)cc3o2)ccc1O [CHR, Chrysoeriol]
CK2α1 and CK2α2 levels (CK2α1 and CK2α2): reduced to baseline
Thermal stabilization of CK2α1 (CK2α1): dose-dependently stabilized
Hyperinflammatory phenotype (IL-6 and TNFAIP2 induction) (IL-6 and TNFAIP2): mitigated
Elevated phosphorylated NF-κB in AD astrocytes (phosphorylated NF-κB): reduced
Tau phosphorylation (tau phosphorylation): reduces
IC50 (NF-κB; Homo sapiens, THP-1, FIG. 5B, read-out: IC50 in THP-1 monocyte NF-κB-Luciferase reporter cells): < 4 µM
SAR summary: activity in NF-κB reporter assay and for CK2 kinase inhibition (NF-κB; at 20 μM, FIG. 5A, some values sourced from Baier et al. (2017) and Lolli et al. (2012)): active
Microglial phagocytosis of pHrodo E. coli beads (microglial phagocytosis): blocked
IL1-β-induced IL-6, IL-8, TNF-α, MCP-1 cytokine upregulation [1]: active; also recorded: strong suppressive activity
